In patent publication US9845318B2, “Class of near infrared optical probes for biological applications” (The University of Akron, priority 2012, dated 2017):
Structures can show the parent of a compound that is named as a salt.

Key:
[1] = test system: zebrafish; experiment: Imaging of Zn^2+ in developing zebrafish, probe added to fish tank water; assay type: in vivo
Text: The most attractive application for zinc probes is sensing Zn^2+ in living organisms. Our ability to discover the fundamental roles of Zn^2+ is dependent on the tools available to detect the Zn^2+ population/concentration in living biological systems. Zebrafish has recently become an important model organism for the study of vertebrate imaging. This is because the embryos of zebrafish are transparent, allowing for clear observation of their organs without the need for dissection. The optical transparancy of zebrafish, therefore, provides a convenient organism for detection of ions by fluorescence microscopy. […] Encouraged by the cell permeability (FIG. 20), Zinhbo-5 was thus examined in developing zebrafish of various stages by adding Zinhbo-5 to fish tank water (treatment lasted for one hour at room temperature). […] However, there were more labeling in other parts of the body in the Zn^2+ treated larvae (FIG. 22 at I). […] Herein the in vivo recognition of the zinc-rich organ in zebrafish larva could be seen with higher image quality by using Zinhbo-5. […] The in vivo results with sensor Zinhbo-5 are somewhat different in light of the previously reported data where zinc was detected using fluorescent sensors in zebrafish. In those studies, fluorescent labeling was concentrated in the heart ventricle of embryos (50 hpf), and scattered throughout the body in larvae (4-5-day old). Whereas Zinhbo-5 labeling is confined mainly to the nose and neuromasts of the lateral line system during this period.
All images show lateral views of live embryos (anterior to the left and dorsal up). The labeled cells are scattered throughout the embryo at 17 hpf (panels A and B). Panel B is a higher magnification of the mid-trunk region of the embryo shown in panel A. Arrowheads in panel B indicate several labeled cells. Zinhbo-5 labeling becomes more restricted as development proceeds. At 50 hpf, Most labeled cells are concentrated in the nose neuromasts of the lateral line system (panels C-F). Arrowheads and asterisks in panels C and D point to some neuromasts in the posterior lateral line system on this side and the other side of the body trunk, respectively. Panels E and F are higher magnifications of the head region of the labeled embryos. Embryos in panels D and F had been treated with Zn2+ before Zinhbo-5 labeling. (Abbreviations: io2, infraorbital line neuromast 2; ml1, middle line neuromast 1; n, nose; o1 and o2, otic lateral line neuromasts 1 and 2; po1, postorbital neuromast 1; so2, supraorbital line neuromast 2).
All images show lateral views (anterior to the left and dorsal up) of live zebrafish larvae. Panels A-C are low magnification images showing almost the entire fish; panels D-F show higher magnification of the head region, while panels G-J show higher magnification of the mid-trunk region of the fish. Panels A, D and G are from larvae labeled with Zinhbo-5. Panels B, E and I are from larvae that had been treated with zinc before exposed to Zinhbo-5. Panels C, F and J are from larvae that were simultaneously treated with Zinhbo-5 and TPEN. […] (Abbreviations: io1 and io3, infraorbital line neuromasts 1 and 3; so1, supraorbital line neuromast 1; ye, yolk extension. Other abbreviations are the same as in FIG. 9).

[2] = Determination of association constant by fluorescence titration with Zn^2+; assay type: binding
Experimental: (§1) The NIR emission intensity at ˜710 nm was linearly proportional to the Zn^2+ concentration (linearly dependent coefficient: R^2=0.9982) (FIGS. 18 and 19). […] The association constants K11 and K12 were determined by a nonlinear least-squares analysis of fluorescence intensity versus Zn^2+ ion concentration to be 3.21×10^5 M^−1 and 3.88×10^10 M^−2, respectively.
An approximate linear fit formula is used to calculate the single association constant Kass1 and Kass2:
[formula] where n is the number of equivalents of the added metal ions, F0 is the fluorescence intensity of the free sensor, and F1 is the fluorescence intensity in the presence of excess cation, C0 is the initial concentration of Zinhbo-5. Kass1 and Kass2 can be obtained by a linear analysis of (F1−F)(x) versus

[3] = Fluorescence response of the sensor in solution upon addition of Zn^2+; assay type: physicochemical
Text: Free ligand Zinhbo-5 gave only weak green fluorescence at 520 and 560 nm. The green fluorescence signal was increased gradually upon addition of Zn^2+ (FIGS. 12 and 13). In addition, a new emission peak at ˜763 nm occurred, which has a very large Stokes shift (˜285 nm). The new emission band was attributed to the keto form arising from the ESIPT process (FIGS. 14 and 15). […] This is because the substituent at the 5-position of benzoxazole unit exerts less electronic interferences to the anticipated ESIPT process (as shown in structure 5). […] The stronger ESIPT from 9 could be associated with the increased rigidity, when two ligands were assembled together via chelation with Zn^2+ cation.
as §1
All the solvents were of analytic grade. The salt used in stock solutions of metal ions were Zn(OAc)2.2H2O, Co(OAc)2.4H2O, Ni(OAc)2.4H2O, Cu(OAc)2.H2O, MgSO4, Cd(OAc)2.6H2O, Mn(OAc)2.4H2O, FeCl2. 4H2O, CaCl2, Na2SO4, Hg(OAc)2, AgNO3, Pb(OAc)2.3H2O, KNO3. Water used was ultra filter deionized and purchased from fisher. HEPES (2-[4-(2-hydroxyethyl)-1-piperazinyl]-ethanesulfonic acid) was from Fisher. NMR spectra were collected on a Varian 300 Gemini spectrometer. Mass spectrometric data were obtained on a HP1100LC/MSD mass spectrometry. UV-Vis spectra were acquired on a Hewlett-Packard 8453 diode-array spectrometer. Fluorescence spectra were obtained on a HORIBA Jobin Yvon NanoLog spectrometer. All pH measurements were made with a model RS232 meter. The fluorescence quantum yield were obtained using quinine sulfate as the standard (Φ=0.53, 0.1 M H2SO4). Cell fluorescence imaging were obtained on a Nikon Eclipse TE2000-5 fluorescence microscope, and analyzed by MetaFluor software (Universal Imaging Corp.).

[4] = test system: Hela cells; experiment: Fluorescence imaging of intracellular Zn^2+ in Hela cells; assay type: cell-based
Experimental: The Zinhbo-5 sensor was applied on Hela cells, in order to examine whether the probe could be useful in living systems under a confocal laser scanning microscopy. […] After three times washing with PBS buffer, the cells were incubated with ZnCl2 (10 μM) in the medium for another 30 min at 37° C., and the fluorescence in living cells was much brighter (FIG. 20, at D).
Hela cells were cultured in DEME (Invitrogen) supplemented with 10% FCS (Invitrogen). One day before imaging, cells were seeded in 24-well flat-bottomed plates. The next day, the Hela cells were incubated with 10 μM sensor Zinhbo-5 for 0.5 h at 37° C. under 5% CO2 and then washed with phosphate-buffered saline (PBS) three times before incubating with 10 μM ZnCl2 for another 0.5 h, cells were rinsed with PBS three times again, then the fluorescence imaging of intracelluar Zn2+ was observed under Nikon eclipase TE2000-5 inverted fluorescence microscopy with a 32× objective lens. The Hela cells only incubated with 10 μM Zinhbo-5 for 0.5 hour at 37° C. under 5% CO2 was as a control. For all images, the microscope settings, such as brightness, contrast, and exposure time were held constant to compare the relative intensity of intracellular Zn^2+ fluorescence.

[5] = 0.1 M H2SO4; cited from earlier work

SMILES: CC(C)(C)c1ccc2oc(-c3cc(O)c(-c4nc5c(CN(Cc6ccccn6)Cc6ccccn6)cccc5o4)cc3O)nc2c1 [Zinhbo-5]
- distribution of labeled zinc-concentrated cells ([1]; 17 hpf, one hour treatment at room temperature): distributed throughout the embryos
- distribution of labeled zinc-concentrated cells ([1]; 50 hpf and 72 hpf): mainly located in the nose and neuromasts of the lateral line system
- labeling pattern in older larvae ([1]; 82 hpf): remained similar
- labeling in lateral line structures, exogenous Zn^2+ treated vs untreated larvae ([1]; 82 hpf, Zn^2+ 20 μM): no obvious difference
- labeling in larvae treated with TPEN ([1]; 82 hpf, zinc chelator TPEN): almost completely eliminated
- association constant K12 / overall association constant Kass ([2]; 2:1 host-guest complex, fluorescence at 710 nm): 3.88×10^10 M^−2
- Kd (sensitivity for Zn^2+) ([2]; aqueous solution): 2.58 nM^2
- association constant Kass2 ([2]; fluorescence at 710 nm): 121000 M⁻¹
- association constant K11 / Kass1 ([2]; fluorescence intensity versus Zn^2+ concentration, 710 nm): 321000 M⁻¹
- new emission peak upon addition of Zn^2+ ([3]; FIGS. 12 and 13, keto form ESIPT emission): ~763 nm
- fluorescence quantum yield Φfl upon addition of one equivalent Zn2+ ([3]; HEPES buffer solution with 50% EtOH, 1 equivalent Zn2+): 0.17
- fluorescence quantum yield Φfl of free ligand ([3]; HEPES buffer solution with 50% EtOH, no Zn^2+): 0.081
- fluorescence enhancement upon zinc binding (green emission) ([3]; aqueous solution): about 14 fold
- NIR emission strength upon zinc binding, comparison ([3]; at ~763 nm, THF, excitation 480 nm (FIG. 14), Zinhbo-5 vs Zinhbo-1, 9 vs crystal 10): quite stronger NIR emission
- Stokes shift of the new emission peak ([3]; peak at ~763 nm): ~285 nm
- fluorescence inside living cells, probe only ([4]; 10 μM probe, 30 min, 37° C.): very weak fluorescence
- cell viability in bright-field transmission image ([4]; cells treated with probe and Zn^2+): viable throughout the imaging experiments
- toxicity to the cell culture ([4]; imaging conditions): primarily nontoxic
- cell permeability ([4]; living cells): cell-permeable
- fluorescence in living cells after incubation with ZnCl2 ([4]; then ZnCl2 (10 μM), 30 min, 37° C.): much brighter
- emission intensity after subsequent addition of TPEN ([4]; zinc chelator TPEN added after Zn^2+): reverted the emission intensity to that of the zinc-free system

SMILES: C=C[C@H]1C[N@@]2CC[C@H]1C[C@H]2[C@H](O)c1ccnc2ccc(OC)cc12 [quinine sulfate]
- fluorescence quantum yield of standard [5]: 0.53
